Format in all cases: functional
For assay [1], the system named is OVCAR-5. In words: Cytotoxicity against Homo sapiens (human) OVCAR5 cells assessed as growth inhibition at 1 uM after 48 hr by SRB assay. The conditions noted are these: OVCAR-5, 48 h, read-out: GI.
Assay [2] deals with PC-3. The experiment in a line: Cytotoxicity against Homo sapiens (human) PC3 cells assessed as growth inhibition at 1 uM after 48 hr by SRB assay. The conditions noted are these: PC-3, 48 h, read-out: GI.
Assay [3] relates to MCF7. In words: Cytotoxicity against Homo sapiens (human) MCF7 cells assessed as growth inhibition at 1 uM after 48 hr by SRB assay. The conditions noted are these: MCF7, 48 h, read-out: GI. A general note: The SRB assay estimates cell density from bound dye.
For assay [4], the system named is COLO 205. In words: Cytotoxicity against Homo sapiens (human) COLO205 cells assessed as growth inhibition at 1uM after 48 hr by SRB assay. The conditions noted are these: COLO 205, 48 h, read-out: GI.

Structures can show the parent of a compound that is named as a salt.

Consider `CC(=O)O[C@H]1C(=O)[C@@]2(C)[C@H]([C@H](OC(=O)c3ccccc3)[C@]3(O)C[C@H](OC(=O)[C@H](O)[C@@H](NC(=O)c4ccccc4)c4ccccc4)C(C)=C1C3(C)C)[C@]1(OC(C)=O)CO[C@@H]1C[C@@H]2O` [PACLITAXEL], for which the inhibition of growth at 1 µM in assay [1] stood at 73%; in assay [2], 71%; in assay [3], 80%; in assay [4], 57%.

For the molecule `COc1cccc2c1C(=O)c1c(O)c3c(c(O)c1C2=O)C[C@@](O)(C(=O)CO)C[C@@H]3O[C@H]1C[C@H](N)[C@H](O)[C@H](C)O1` [DOXORUBICIN HYDROCHLORIDE], the inhibition of growth at 1 µM in assay [1] was found to be 60%; in assay [2] it was 66%; in assay [3] it was 72%; in assay [4], 69%.
